Results: publication PMC11634579, “Network pharmacology, experimental validation and pharmacokinetics integrated strategy to reveal pharmacological mechanism of goutengsan on methamphetamine dependence” (Frontiers in Pharmacology, 2024)
Entries after “also recorded” stand apart in the source; their conditions may differ. Where a name gives a salt, the structure may show the parent alone.

Assays:
[1] = parameters: method as in Ru et al., 2014; settings: obtained from TCMSP database; ref Ru et al., 2014; cited from earlier work
[2] = Pharmacokinetics and brain tissue distribution after gavage of GTS (UPLC-MS); assay type: in vivo, Babl/c mice; settings: mice; for detection in brain tissues / detection in plasma / exposure in plasma and brain: after oral administration of GTS; for time at which concentration in brain peaked: gavage of GTS infusion (2.75 g crude drug/mL, 2 mL/kg), sampling 0.5, 2, 4, 6, 9 h
Procedure: Animal experiments: Babl/c mice weighing 18–22 g (6–8 weeks old) with equal numbers of males and females, were provided by the Experimental Animal Center of Southern Medical University. The mice were maintained at room temperature (20 ± 2) °C, humidity (60 ± 5)%, 12 h light cycles, and provided an ad libitum diet. Thirty mice were randomly divided into 0.5, 2, 4, 6 and 9 h groups, with 6 mice each. An infusion at concentration of 2.75 g of GTS crude drug/mL was obtained, and the drug was administered by gavage at a dose of 2 mL GTS infusion drug/kg. After 0.5, 2, 4, 6 and 9 h of administration, the plasma and brain tissues in the 0.5, 2, 4, 6 and 9 h groups were collected. The plasma and brain tissue samples were processed in accordance with biological sample processing procedures.
Establishment of UPLC-MS method: An LCMS-8050 liquid chromatography mass spectrometer (Shimadzu, Japan) was operated with a horizon C18 column (100 × 2.1 mm, 3 µm). The mobile phase was 0.1% formic acid in water (A) - acetonitrile (B), and the gradient elution was 0–8 min, 10%–50% B; 8–9 min, 50%–10% B; 9–11 min, 10% B. The column temperature was 30°C, the injection volume was 5 μL, and flow rate was 0.4 mL min^−1. The mass spectrometry conditions included HPLC-MS/MS in […] full-scan and sub-ion scanning modes, an electrospray ionization source (ESI), positive and negative ion mode detection, and nebulizing gas of nitrogen (N2). The zeroed gas flow rate was 3 L min^−1, desolventization temperature was 526°C, and DL temperature was 250°C. Then the parent ion, daughter ion, collision energy, and polarity of the above components were determined (Table 2).

[3] = MTT detection of cell viability; assay type: cell-based, human; settings: human, SH-SY5Y cells, 200 μmol ·L^−1, 48 h
Procedure: (§1) SH-SY5Y cells were inoculated into a 96-well plate. […] After 48 h of incubation at 6 wells per concentration, MTT was added for 4 h. Then incubation was stopped, the liquid was discarded, and dimethyl sulfoxide was added. After horizontal shakening for 5 min, the absorbance at 490 nm was measured using an enzyme-linked immunosorbent assay (Elisa) reader ([Yang et al., 2018]).

[4] = system: SH-SY5Y cells; assay: MTT detection of cell viability; assay type: cell-based, human; settings: 48 h
Procedure: as §1

[5] = system: 5-HT; assay: Elisa detection of 5-HT in MA-induced SH-SY5Y cells; assay type: cell-based, human; settings: vs MA model group (100 μmol ·L^−1 MA, 48 h); 4x equivalent dose GTS-containing serum, MK-801 100 μmol ·L^−1
Procedure: (§2) An equal volume of the complete culture medium was added to the control group. The drug-containing culture medium (100 μmol ·L^−1 MA) was added to MA model group. […] After medication, all groups were continued for 48 h, photographed, and used for the next experiment.
(§3) The above SH-SY5Y cells were inoculated onto a 6-well plate, and cultured for 24 h. Then the culture medium was aspirated. The cells were rinsed with phosphate buffered salt (PBS) once. After PBS was removed, a hydrochloric acid solution was added. The cells were scraped to form cell suspension. After centrifugation, the supernatant was extracted, and the cAMP and 5-HT levels of the cells were detected according to the instructions of an Elisa reagent kit (Dakewei Biotechnology Co., Ltd.) ([Zhan et al., 2022]).

[6] = system: pyramidal cells in hippocampal CA1; assay: HE staining of rat hippocampal CA1 after CPP test; assay type: in vivo, Sprague-Dawley (SD) rats; settings: vs MA model group
Source text: After the CPP test, a cervical dislocation method was used to euthanize the rats. The brain tissue of each rat was cut along the midline of the sagittal plane in the head. […] The hippocampus consists of CA1, CA2, CA3, and CA4. Specifically, CA1 is mainly composed of […], and is more suitable for MA-dependent observation ([Zhong et al., 2012]). Therefore, the pyramidal cells in hippocampal CA1 were mainly observed after hematoxylin-eosin (HE) staining. The hippocampal CA1 after HE staining was observed under microscopy and then photographed.

[7] = system: cAMP; assay: Elisa detection of cAMP in MA-induced SH-SY5Y cells; assay type: cell-based, human; settings: vs MA model group (100 μmol ·L^−1 MA, 48 h); 4x equivalent dose GTS-containing serum, MK-801 100 μmol ·L^−1
Procedure: as §2, §3

[8] = system: MA-induced CPP effect; assay: MA-dependent rat conditioned place preference (CPP) model; assay type: in vivo, Sprague-Dawley (SD) rats; settings: vs MA model group, GTS 11.00 g crude drug/kg i.p., MK-801 10 mg/kg i.p.
Procedure: Male Sprague-Dawley (SD) rats weighing 180–220 g (2 months old) were provided by the Experimental Animal Center of Southern Medical University. The rats were maintained at room temperature (20 ± 2) °C, humidity (60 ± 5)%, 12 h light cycles, and provided an ad libitum diet. Before commencing the experiment, the rats were allowed to acclimatize for a minimum of 3 days. The Southern Medical University Experimental Animal Ethics Committee approved all animal experiments, which were conducted in accordance with the National Institutes of Health Guide for the Care and Use of Laboratory Animals (NIH publication #85–23, revised 1985). […] An MA-dependent rat CPP model was established in our previous studies and MA was used at 2 mg/kg ([Li et al., 2018b]). […] Before administration, determine the dosing volume based on each rat’s body weight; for example, a 200 g rat would receive a 1 mL dose.
Given the scarcity and specificity of […], we decided to use a 4x equivalent dose of GTS as the therapeutic dose. Thus, in the current study, only one treatment dose group of GTS was selected.
The CPP exam was made up of three phases over the course of 10 days (Figure 5A). During the habituation phase (days 1–3), each rat was allowed to move freely firom the black to white compartment for 30 min each day. On day 3, rats were videotaped throughout a 15-min trial and their movement trajectories, time spent and total movement distances were recorded. The door was closed to keep the two compartments apart during the conditioning period (on days 4–9). […] Rats were given the same amount of physiological saline (s.c.) in each group after an 8-h break, and they were then promptly segregated into the black compartment for 1 h. […] At 0:00 a.m. on day 10 (testing phase), the formal CPP testing began, rats were videotaped throughout a 15-min trial using Noldus Ethovision XT 8.5 software, and their movement trajectories, time spent and total movement distances were recorded.
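Throughout, for BBB (blood–brain–barrier): unitless TCMSP predicted score with screening cut-off BBB at least 0.3.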

SMILES	BBB (blood–brain–barrier) [1]	OB% (oral bioavailability) [1] [%]	exposure in plasma and brain [2]	other results
CC1(C)[C@@H](O[C@H]2O[C@H](C(=O)O)[C@@H](O)[C@H](O)[C@H]2O[C@@H]2O[C@H](C(=O)O)[C@@H](O)[C@H](O)[C@H]2O)CC[C@]2(C)[C@H]3C(=O)C=C4[C@@H]5C[C@@](C)(C(=O)O)CC[C@]5(C)CC[C@@]4(C)[C@]3(C)CC[C@@H]12 [Glycyrrhizic acid]	0.80	30.70	–	detection in brain tissues [2]: undetectable; detection in plasma [2]: detectable in plasma and at high levels
CN[C@@H](C)Cc1ccccc1 [MA, Methamphetamine hydrochloride]	–	–	–	viability at 48 h, 200 μmol·L^−1 [3]: < 90%; maximum safe dose [4]: 100 µmol/L
O=C1C[C@@H](c2ccc(O[C@@H]3O[C@H](CO)[C@@H](O)[C@H](O)[C@H]3O)cc2)Oc2cc(O)ccc21 [Liquiritin]	0.61	58.81	–	detection in brain tissues [2]: undetectable; detection in plasma [2]: detectable in plasma and at high levels
O=C(/C=C/c1ccc(O)c(O)c1)O[C@@H]1C[C@](O)(C(=O)O)C[C@@H](O)[C@H]1O [Chlorogenic acid]	0.94	30.70	exposed in the plasma and brain; also recorded: absorbed into the bloodstream and distributed to brain tissues	–
C[C@]12N[C@H](Cc3ccccc31)c1ccccc12 [MK-801, Dizocilpine]	–	–	–	level of 5-HT in SH-SY5Y cells [5]: same trend as GTS treatment group; damage of pyramidal cells in hippocampal CA1 (HE staining) [6]: significantly reduced damage; level of cAMP in SH-SY5Y cells [7]: same trend as GTS treatment group; movement trajectory in CPP box after MA training ([8]; once daily days 5–9): significantly decreased; time spent in the white box after MA training ([8]; n = 10): same trend as GTS treatment group; total movement distances in the white box after MA training ([8]; n = 10): same trend as GTS treatment group
CC[C@H]1CN2CC[C@]3(C(=O)Nc4ccccc43)[C@@H]2C[C@@H]1/C(=C\OC)C(=O)OC [Rhynchophylline]	0.38	41.82	exposed in the plasma and brain; also recorded: absorbed into the bloodstream and distributed to brain tissues	time at which concentration in brain peaked [2]: 6 h
CC1(C)CC[C@]2(C(=O)O)CC[C@]3(C)C(=CC[C@@H]4[C@@]5(C)CC[C@H](O)[C@@](C)(CO)[C@@H]5CC[C@]43C)[C@@H]2C1 [Hederagenin]	0.96	–	–	–
COc1ccc2c(=O)c(-c3ccccc3)c(C)oc2c1 [7-methoxy-2-methyl isoflavone]	0.56	42.56	–	–
COc1ccc(C2COc3c(ccc4c3C=CC(C)(C)O4)C2)c(O)c1O (stereo not shown) [3′-hydroxy-4′-O-methylglabridin]	0.73	43.71	–	–
COc1ccc([C@@H]2CC(=O)c3c(O)cc(O[C@@H]4O[C@H](CO[C@@H]5O[C@@H](C)[C@H](O)[C@@H](O)[C@H]5O)[C@@H](O)[C@H](O)[C@H]4O)cc3O2)cc1O [Hesperidin]	0.82	32.75	exposed in the plasma and brain; also recorded: absorbed into the bloodstream and distributed to brain tissues	time at which concentration in brain peaked [2]: 4 h
C=C[C@H]1CN2CCc3c([nH]c4ccccc34)[C@H]2C[C@@H]1/C(=C\OC)C(=O)OC [delta (sup 18)-Hirsutine]	0.76	41.64	–	–
COc1cc(O)cc2c1[C@@H]1Oc3c(ccc(O)c3CC=C(C)C)[C@@H]1CO2 [1-methoxyphaseollidin]	0.48	69.98	–	–
COc1c2c(cc3oc(C)cc(=O)c13)OC(C(C)(C)O[C@@H]1O[C@H](CO)[C@@H](O)[C@H](O)[C@H]1O)C2 (stereo partly shown) [5-O-Methylviscumaboloside]	0.56	32.47	exposed in the plasma and brain	time at which concentration in brain peaked [2]: 6 h
